≈ marks a conversion by molar mass, not a printed value. Like-named read-outs stand apart in the source and are kept apart here. Marks after values point to notes of the source that are not given here.
Legend:
[1] = system: Candida albicans ATCC 10231; assay: Broth microdilution MIC; assay type: cell-based; conditions: for Minimal Inhibitory Concentrations MICs: 48 h; for MIC: ATCC10231, 48 h, read-out: Minimal Inhibitory Concentrations MICs
[2] = system: Enterococcus faecalis ATCC 29212; assay: Broth microdilution MIC; assay type: cell-based; conditions: for Minimal Inhibitory Concentrations MICs: 24 h; for MIC: ATCC29212, 24 h, read-out: Minimal Inhibitory Concentrations MICs
[3] = DPPH free radical scavenging assay
[4] = cited from earlier work; for DPPH IC50: isolated from medicinal rice (Oryza sativa L.), ref Mohanlal et al. (2011) [7]
[5] = system: Klebsiella pneumoniae NCIMB 9111; assay: Broth microdilution MIC; assay type: cell-based; conditions: NCIMB9111, 24 h, read-out: Minimal Inhibitory Concentrations MICs
[6] = ABTS free radical scavenging assay
[7] = system: Escherichia coli ATCC 8739; assay: Broth microdilution MIC; assay type: cell-based; conditions: ATCC8739, 24 h, read-out: Minimal Inhibitory Concentrations MICs
tyrosinase from mushroom = assay type: biochemical
[8] = system: Pseudomonas aeruginosa ATCC 9027; assay: Broth microdilution MIC; assay type: cell-based; conditions: ATCC9027, 24 h, read-out: Minimal Inhibitory Concentrations MICs
tyrosinase = conditions: ref [38]; cited from earlier work
[9] = molecular target: butyrylcholinesterase (BChE) from equine serum (Equus caballus, UniProt P81908); assay: biochemical; assay type: biochemical
butyrylcholinesterase (BChE) from equine serum, sequence (P81908 whole entry, looked up): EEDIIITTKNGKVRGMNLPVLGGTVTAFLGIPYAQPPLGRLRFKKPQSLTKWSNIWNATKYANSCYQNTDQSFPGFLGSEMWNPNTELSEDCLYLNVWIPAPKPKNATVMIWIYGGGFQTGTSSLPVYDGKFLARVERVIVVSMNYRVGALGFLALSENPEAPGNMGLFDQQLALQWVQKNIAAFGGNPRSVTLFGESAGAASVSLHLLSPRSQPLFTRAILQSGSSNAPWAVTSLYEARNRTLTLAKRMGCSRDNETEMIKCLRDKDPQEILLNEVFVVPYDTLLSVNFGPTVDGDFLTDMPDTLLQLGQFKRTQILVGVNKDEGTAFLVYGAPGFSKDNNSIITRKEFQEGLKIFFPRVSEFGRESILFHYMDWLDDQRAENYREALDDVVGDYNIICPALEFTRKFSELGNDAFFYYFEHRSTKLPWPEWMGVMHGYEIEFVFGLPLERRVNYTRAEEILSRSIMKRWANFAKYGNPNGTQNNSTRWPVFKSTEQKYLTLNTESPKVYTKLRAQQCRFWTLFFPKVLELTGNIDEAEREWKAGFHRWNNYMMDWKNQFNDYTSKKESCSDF

[10] = molecular target: acetylcholinesterase (AChE) from Electrophorus electricus (Electrophorus electricus, UniProt O42275); assay: biochemical
acetylcholinesterase (AChE) from Electrophorus electricus, sequence (O42275 24-633 limits assumed): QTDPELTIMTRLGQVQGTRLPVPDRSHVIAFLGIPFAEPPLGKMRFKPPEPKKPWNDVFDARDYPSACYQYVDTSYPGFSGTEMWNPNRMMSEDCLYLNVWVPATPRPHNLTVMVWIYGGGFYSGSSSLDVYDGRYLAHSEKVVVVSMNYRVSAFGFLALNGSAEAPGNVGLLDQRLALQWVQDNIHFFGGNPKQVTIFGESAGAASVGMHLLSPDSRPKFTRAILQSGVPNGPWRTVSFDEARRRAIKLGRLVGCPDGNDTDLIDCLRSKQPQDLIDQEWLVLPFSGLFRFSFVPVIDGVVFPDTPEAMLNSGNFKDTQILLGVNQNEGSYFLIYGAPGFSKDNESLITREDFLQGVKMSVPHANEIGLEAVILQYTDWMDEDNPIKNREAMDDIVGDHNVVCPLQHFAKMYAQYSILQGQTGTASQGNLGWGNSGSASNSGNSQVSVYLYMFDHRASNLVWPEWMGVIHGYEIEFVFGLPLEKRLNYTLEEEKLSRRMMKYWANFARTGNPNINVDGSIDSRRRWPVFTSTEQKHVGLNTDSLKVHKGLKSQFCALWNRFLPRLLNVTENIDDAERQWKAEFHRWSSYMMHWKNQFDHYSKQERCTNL

[11] = FRAP ferric reducing power assay
[12] = system: Bacillus subtilis ATCC 6633; assay: Broth microdilution MIC; assay type: cell-based; conditions: for Minimal Inhibitory Concentrations MICs: 24 h; for MIC: ATCC6633, 24 h, read-out: Minimal Inhibitory Concentrations MICs
[13] = system: Staphylococcus aureus ATCC 6538; assay: Broth microdilution MIC; assay type: cell-based; conditions: ATCC6538, 24 h, extracts 62.5–1000, compounds 31.25–500 µg/mL tested, read-out: Minimal Inhibitory Concentrations MICs
[14] = molecular target: T1, α-amylase from porcine pancreas (Sus scrofa, UniProt P00690); assay: biochemical; conditions: read-out: α-amilase IC50 (converted)
T1 construct: purchased Merck KGaA (Darmstadt, Germany) type VI-B (catalogue number not given); host or cells: porcine pancreas
T1 sequence (P00690 16-511): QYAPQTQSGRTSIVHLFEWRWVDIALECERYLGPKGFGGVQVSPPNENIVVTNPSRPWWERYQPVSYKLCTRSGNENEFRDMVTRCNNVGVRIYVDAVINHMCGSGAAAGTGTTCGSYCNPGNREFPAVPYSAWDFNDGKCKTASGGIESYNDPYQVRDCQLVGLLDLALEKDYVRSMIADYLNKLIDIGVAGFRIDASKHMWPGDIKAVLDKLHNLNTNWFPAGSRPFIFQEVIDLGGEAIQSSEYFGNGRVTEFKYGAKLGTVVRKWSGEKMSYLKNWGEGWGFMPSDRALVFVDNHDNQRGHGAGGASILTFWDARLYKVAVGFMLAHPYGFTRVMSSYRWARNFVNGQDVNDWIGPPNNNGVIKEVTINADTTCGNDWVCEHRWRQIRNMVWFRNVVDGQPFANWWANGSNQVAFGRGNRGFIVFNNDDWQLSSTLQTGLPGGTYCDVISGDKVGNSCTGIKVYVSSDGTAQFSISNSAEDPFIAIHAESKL

[15] = system: Salmonella abony NCTC 6017; assay: Broth microdilution MIC; assay type: cell-based; conditions: Salmonella enterica, NCTC6017; Salmonella abony; 24 h; read-out: Minimal Inhibitory Concentrations MICs
[16] = TRC (total reducing capacity) ferric reducing power assay; conditions: L-ascorbic acid equivalents
[17] = molecular target: acetylcholinesterase (AChE); conditions: ref Sim et al. (2014) [39]; cited from earlier work
Gram-negative bacteria = system: Gram-negative bacteria; set-up: method as in Lou et al. (2012) [44]; conditions: ref Lou et al. (2012) [44]; cited from earlier work
α-amylase = conditions: cited from earlier work
[18] = system: clinical isolates of both Gram-positive and Gram-negative bacteria; set-up: method as in Alves et al. (2013) [45]; conditions: ref Alves et al. (2013) [45]; cited from earlier work
[19] = system: three tested Gram-positive bacteria; set-up: method as in Lou et al. (2012) [44]; conditions: ref Lou et al. (2012) [44]; cited from earlier work
α-glucosidase = conditions: cited from earlier work
[20] = mg/mL figure given in parentheses beside mM, ref Jeong et al. (2012) [29]

For COc1cc(-c2cc(=O)c3c(O)cc(O)cc3o2)cc(OC)c1O [TRN, 5,7,4′-trihydroxy-3′,5′-dimethoxyflavone], which “Minimal Inhibitory Concentrations MICs” value [1] is on record?
The value was 250 µg/mL.

And the MIC [1]?
The MIC was 250 µg/mL (≈ 757 µM).

What about the “Minimal Inhibitory Concentrations MICs” value [2] of the same compound?
The value was 31.25 µg/mL.

What about the MIC [2] of the same compound?
Its MIC is 31.2 µg/mL (≈ 94.6 µM).

What about the “DPPH IC50” value [3] of the same compound?
Its value is 1.71 ± 0.15 ^b mg/mL.

And the “DPPH IC50” value [4]?
The value was 90.39 µg/mL.

What about the MIC [5] of the same compound?
The MIC was over 500 µg/mL.

What about the “ABTS IC50” value [6] of the same compound?
Its value is 0.46 ± 0.01 ^a mg/mL.

And the MIC [7]?
The MIC was over 500 µg/mL.

What about the “Tyr IC50” value (tyrosinase from mushroom) of the same compound?
Its value is “did not exhibit inhibitory activity within the tested concentration range”.

What about the MIC [8] of the same compound?
Its MIC is over 500 µg/mL.

What about the “tyrosinase IC50” value (tyrosinase) of the same compound?
Its value is 269.46 µg/mL.

What about the IC50 [9] of the same compound?
Its IC50 is 1.67 mM.

And the IC50 [10]?
Its IC50 is 8.72 mM.

What about the FRAP [11] of the same compound?
Its FRAP is 0.34 ± 0.01 ^d µmol Fe^2+/g.

What about the “Minimal Inhibitory Concentrations MICs” value [12] of the same compound?
The value was 31.25 µg/mL.

What about the MIC [12] of the same compound?
The MIC was 31.2 µg/mL (≈ 94.6 µM).

What about the MIC [13] of the same compound?
The MIC was 62.5 µg/mL (≈ 189 µM).

And the IC50 [14]?
The IC50 was 5.84 mM.

What about the MIC [15] of the same compound?
The MIC was over 500 µg/mL.

What about the TRC [16] of the same compound?
Its TRC is 312.08 ± 12.44 ^d mg L-AAE/g.

For COc1ccc2cc3[n+](cc2c1OC)CCc1cc2c(cc1-3)OCO2 [berberine, reference compound], which “AChE IC50” value [17] is on record?
Its value is 1.5 µg/mL.

What does the source list for O=C(O)/C=C/c1ccc(O)cc1 [p-CA, p-coumaric acid]?
Minimal Inhibitory Concentrations MICs [1]: 250 µg/mL; MIC [1]: 250 µg/mL (≈ 1520 µM); Minimal Inhibitory Concentrations MICs [2]: 31.25 µg/mL; MIC [2]: 31.2 µg/mL (≈ 190 µM); MIC (Gram-negative bacteria): 10 to 80 µg/mL; α-amylase IC50 (α-amylase; [20]): > 4920 µg/mL; IC50 (α-amylase; ref Jeong et al. (2012) [29]): > 30 mM; DPPH IC50 [3]: 2.96 ± 0.16 ^a mg/mL; DPPH radical inhibition ([4]; concentrations 50–1000 µg/mL, ref Jeong et al. (2010) [24]): 10.3–26.9%; MIC [5]: > 500 µg/mL; ABTS IC50 [6]: 0.0256 ± 0.0012 ^c mg/mL; MIC [18]: ≥ 1000 µg/mL; MIC [7]: > 500 µg/mL; MIC [8]: > 500 µg/mL; MIC [19]: 20 µg/mL (≈ 122 µM); IC50 [10]: 63.3 mM; α-glucosidase IC50 (α-glucosidase; [20]): > 4920 µg/mL; IC50 (α-glucosidase; ref Jeong et al. (2012) [29]): > 30 mM; α-glucosidase IC50 (α-glucosidase; ref Nile and Park (2014) [34]): 90.8 µg/mL; FRAP [11]: 0.92 ± 0.02 ^c µmol Fe^2+/g; Minimal Inhibitory Concentrations MICs [12]: 31.25 µg/mL; MIC [12]: 31.2 µg/mL (≈ 190 µM); MIC [13]: 62.5 µg/mL (≈ 381 µM); IC50 [14]: 167 mM; MIC [15]: > 500 µg/mL; TRC [16]: 1810.89 ± 116.14 ^b mg L-AAE/g; TRC ([16]; listed as p-Coumaric acid): 1810.89 mg L-AAE/g

With O=c1c(O)c(-c2ccc(O)c(O)c2)oc2cc(O)cc(O)c12 [quercetin] as the compound, how does the “DPPH IC50” value [4] read?
The value was 42.98 µg/mL.

For C[C@H]1O[C@H](O[C@H]2[C@H](O)[C@@H](O)[C@@H](O[C@H]3[C@H](O)[C@@H](O)C(O)O[C@@H]3CO)O[C@@H]2CO)[C@H](O)[C@@H](O)[C@@H]1N[C@H]1C=C(CO)[C@@H](O)[C@H](O)[C@H]1O (stereo partly drawn) [ACB, acarbose, reference compound], which α-amylase inhibition (α-amylase; at 1.5 mg/mL, ref [29]) is on record?
Its α-amylase inhibition is 59.3%.

And the α-glucosidase inhibition (α-glucosidase; at 0.44 mg/mL, ref [33])?
The α-glucosidase inhibition was 62%.

What about the α-glucosidase inhibition (α-glucosidase; at 1.5 mg/mL, ref [29]) of the same compound?
Its α-glucosidase inhibition is 70.2%.

With COc1cc(C(O)C(CO)Oc2c(OC)cc(-c3cc(=O)c4c(O)cc(O)cc4o3)cc2OC)ccc1O (stereo not drawn) [salcolin A, tricin 4′-O-(threo-β-guaiacylglyceryl)ether] as the compound, how does the “DPPH IC50” value [4] read?
Its value is 208.1 µg/mL.

Source: article PMC11820700, “Antioxidant, Enzyme-Inhibitory and Antimicrobial Activity of Underutilized Wheat and Maize Crop Residues” (Plants, 2025)
